The test deals with T1, gp41 of HIV-1 (Human immunodeficiency virus type 1 group M subtype B, UniProt P03375).
T1 construct: cell-cell fusion induced by gp41 of HIV-1 expressed in CHO cells; expressed in transfected cells; host or cells: CHO cells (effector), co-cultured with CD4-expressing HeLa cells (target)
It counts as cell-based, HIV-1 (BH10 isolate). The settings on record: 20 nM T-20, positive inhibition control, 37° C., 16 hours.

The results in this text go back to patent US8110545B2, “Non-proteolysable oligopeptides that inhibit glycoprotein GP41 of the aids virus” (priority 2005, dated 2012).

T1 sequence (P03375 512-856): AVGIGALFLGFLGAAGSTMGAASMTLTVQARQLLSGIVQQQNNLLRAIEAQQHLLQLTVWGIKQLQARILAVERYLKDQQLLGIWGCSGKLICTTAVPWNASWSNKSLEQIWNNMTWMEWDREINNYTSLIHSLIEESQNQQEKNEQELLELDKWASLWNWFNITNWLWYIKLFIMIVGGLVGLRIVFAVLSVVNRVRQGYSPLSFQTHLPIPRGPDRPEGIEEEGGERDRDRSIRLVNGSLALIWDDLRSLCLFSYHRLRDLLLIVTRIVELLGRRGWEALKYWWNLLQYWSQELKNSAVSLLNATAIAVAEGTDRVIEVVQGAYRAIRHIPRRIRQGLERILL
Procedure: The effect has been measured as the inhibition of cell-cell fusion induced by gp41 of HIV-1 expressed in CHO cells, which takes place when they are mixed with CD4 receptor-expressing HeLa cells (BH10 isolate: Gene Bank access number M15654). The oligopeptide concentration was 5 μM and the temperature was 37° C. Incubation in the cell culture medium (GMEM-S supplemented with 1 mM sodium pyruvate and 0.4 mM methionine sulfoximine) was performed for 16 hours. The bars correspond to the number of nuclei in syncytial plates (fused cells with more than 4 nuclei) per field after this time. The means of 4 individual measurements plus the standard deviations are shown.
As a positive inhibition control, cells treated with 20 nM of T-20 (enfuvirtide) are shown. The sample, in the sole presence of gqidev, was processed following the protocol described in the preceding figure.
The lines represent adjustments to hyperbolic-type functions. The assay, in the presence of increasing quantities of oligopeptides, was performed and quantified in accordance with the description of FIG. 3. […]
It was added, at a concentration of 5 μM (micromolar), to the cell culture medium (GMEM-S supplemented with 1 mM sodium pyruvate and 0.4 mM methionine sulfoximine). […] The activity of gp41 is detected by the formation of multi-nucleated cells (CTL panel) produced by the fusion of the plasma membranes.

Consider enfuvirtide, for which the “inhibitory effect on gp41 activity (cell-cell fusion, formation of syncytia)” value was “comparable inhibition of gp41”.
